# Measured values reported in ChEMBL document CHEMBL1201862, “PubChem BioAssay data set” (2004).
# The source made the active and inactive calls.
# What was measured:
# [1] = inhibitors of Vif binding to APOBEC3G peptide, primary screen, biochemical, TR-FRET, GST-Vif 1-94, biotin-A3G peptide, dose response retest (AID 1117319); format: functional;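 further: TR-FRET signal of purified GST-Vif binding a biotinylated A3G peptide; inhibitors lower the FRET signal by blocking Vif and A3G binding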
# [2] = biological target: Peroxisome proliferator-activated receptor gamma/Nuclear receptor coactivator 2 (Homo sapiens, UniProt P37231); format: functional;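 further: agonist potency for raising coactivator recruitment to the receptor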
# [3] = biological target: Peroxisome proliferator-activated receptor gamma/Nuclear receptor coactivator 3 (Homo sapiens, UniProt P37231); format: functional;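 further: agonist potency for raising coactivator recruitment to the receptor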
# Chain of Peroxisome proliferator-activated receptor gamma/Nuclear receptor coactivator 3 (P37231 whole entry): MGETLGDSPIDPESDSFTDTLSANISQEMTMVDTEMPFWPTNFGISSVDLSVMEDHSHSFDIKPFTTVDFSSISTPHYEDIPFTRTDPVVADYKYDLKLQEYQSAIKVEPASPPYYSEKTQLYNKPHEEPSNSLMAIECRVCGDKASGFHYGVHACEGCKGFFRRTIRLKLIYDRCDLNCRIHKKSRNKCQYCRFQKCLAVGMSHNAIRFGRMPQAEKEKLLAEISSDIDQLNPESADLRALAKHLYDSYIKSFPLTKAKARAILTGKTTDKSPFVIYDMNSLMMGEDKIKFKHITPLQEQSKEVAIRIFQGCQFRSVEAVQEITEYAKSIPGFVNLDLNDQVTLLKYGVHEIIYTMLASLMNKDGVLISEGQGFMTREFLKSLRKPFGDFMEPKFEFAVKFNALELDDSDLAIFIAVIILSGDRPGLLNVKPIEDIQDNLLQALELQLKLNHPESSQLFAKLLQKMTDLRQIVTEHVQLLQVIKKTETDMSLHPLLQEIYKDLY
# Chain of Peroxisome proliferator-activated receptor gamma/Nuclear receptor coactivator 3 (Q9Y6Q9 whole entry, further chain): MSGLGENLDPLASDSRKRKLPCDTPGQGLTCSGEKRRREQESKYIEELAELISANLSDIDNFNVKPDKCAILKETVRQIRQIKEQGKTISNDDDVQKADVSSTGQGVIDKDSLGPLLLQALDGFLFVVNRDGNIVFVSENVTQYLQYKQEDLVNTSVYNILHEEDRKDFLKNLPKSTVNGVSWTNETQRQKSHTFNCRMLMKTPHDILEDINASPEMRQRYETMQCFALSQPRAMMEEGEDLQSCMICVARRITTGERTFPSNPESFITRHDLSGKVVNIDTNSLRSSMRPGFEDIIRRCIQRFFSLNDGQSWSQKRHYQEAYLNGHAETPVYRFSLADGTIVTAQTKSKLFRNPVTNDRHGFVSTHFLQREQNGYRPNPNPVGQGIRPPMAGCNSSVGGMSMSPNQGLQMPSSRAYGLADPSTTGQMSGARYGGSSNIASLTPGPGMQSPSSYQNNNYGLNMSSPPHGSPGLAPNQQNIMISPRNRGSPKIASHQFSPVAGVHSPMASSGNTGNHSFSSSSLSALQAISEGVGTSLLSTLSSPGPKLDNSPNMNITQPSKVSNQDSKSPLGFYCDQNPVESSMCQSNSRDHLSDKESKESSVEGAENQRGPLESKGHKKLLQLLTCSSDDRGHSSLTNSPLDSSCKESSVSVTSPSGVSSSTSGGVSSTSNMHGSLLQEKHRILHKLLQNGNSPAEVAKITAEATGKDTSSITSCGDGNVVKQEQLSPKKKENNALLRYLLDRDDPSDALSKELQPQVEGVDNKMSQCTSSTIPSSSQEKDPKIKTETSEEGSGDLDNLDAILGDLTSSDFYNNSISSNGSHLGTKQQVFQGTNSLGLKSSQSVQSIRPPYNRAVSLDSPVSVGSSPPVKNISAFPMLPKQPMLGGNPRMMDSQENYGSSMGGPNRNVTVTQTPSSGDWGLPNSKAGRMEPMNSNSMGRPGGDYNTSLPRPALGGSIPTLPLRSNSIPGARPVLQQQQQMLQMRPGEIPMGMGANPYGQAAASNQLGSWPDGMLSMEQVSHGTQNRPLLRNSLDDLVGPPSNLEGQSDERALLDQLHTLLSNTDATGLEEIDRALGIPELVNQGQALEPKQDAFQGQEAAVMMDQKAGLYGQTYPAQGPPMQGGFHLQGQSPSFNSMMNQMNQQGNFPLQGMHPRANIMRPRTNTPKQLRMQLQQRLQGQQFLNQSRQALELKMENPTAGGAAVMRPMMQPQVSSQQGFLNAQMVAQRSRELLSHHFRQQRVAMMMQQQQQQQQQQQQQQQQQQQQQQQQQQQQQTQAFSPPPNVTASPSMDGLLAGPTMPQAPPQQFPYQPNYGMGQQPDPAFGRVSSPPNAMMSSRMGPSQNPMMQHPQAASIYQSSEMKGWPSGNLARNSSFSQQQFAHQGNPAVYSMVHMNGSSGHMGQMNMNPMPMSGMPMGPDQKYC
# [4] = biological target: Peroxisome proliferator-activated receptor gamma/Nuclear receptor coactivator 1 (Homo sapiens, UniProt P37231); format: functional;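 further: agonist potency as compounds enhance coactivator SRC-1 recruitment to PPARgamma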
# Chain of Peroxisome proliferator-activated receptor gamma/Nuclear receptor coactivator 1 (P37231 whole entry): as the sequence (P37231 whole entry) above
# Chain of Peroxisome proliferator-activated receptor gamma/Nuclear receptor coactivator 1 (Q15788 whole entry, further chain): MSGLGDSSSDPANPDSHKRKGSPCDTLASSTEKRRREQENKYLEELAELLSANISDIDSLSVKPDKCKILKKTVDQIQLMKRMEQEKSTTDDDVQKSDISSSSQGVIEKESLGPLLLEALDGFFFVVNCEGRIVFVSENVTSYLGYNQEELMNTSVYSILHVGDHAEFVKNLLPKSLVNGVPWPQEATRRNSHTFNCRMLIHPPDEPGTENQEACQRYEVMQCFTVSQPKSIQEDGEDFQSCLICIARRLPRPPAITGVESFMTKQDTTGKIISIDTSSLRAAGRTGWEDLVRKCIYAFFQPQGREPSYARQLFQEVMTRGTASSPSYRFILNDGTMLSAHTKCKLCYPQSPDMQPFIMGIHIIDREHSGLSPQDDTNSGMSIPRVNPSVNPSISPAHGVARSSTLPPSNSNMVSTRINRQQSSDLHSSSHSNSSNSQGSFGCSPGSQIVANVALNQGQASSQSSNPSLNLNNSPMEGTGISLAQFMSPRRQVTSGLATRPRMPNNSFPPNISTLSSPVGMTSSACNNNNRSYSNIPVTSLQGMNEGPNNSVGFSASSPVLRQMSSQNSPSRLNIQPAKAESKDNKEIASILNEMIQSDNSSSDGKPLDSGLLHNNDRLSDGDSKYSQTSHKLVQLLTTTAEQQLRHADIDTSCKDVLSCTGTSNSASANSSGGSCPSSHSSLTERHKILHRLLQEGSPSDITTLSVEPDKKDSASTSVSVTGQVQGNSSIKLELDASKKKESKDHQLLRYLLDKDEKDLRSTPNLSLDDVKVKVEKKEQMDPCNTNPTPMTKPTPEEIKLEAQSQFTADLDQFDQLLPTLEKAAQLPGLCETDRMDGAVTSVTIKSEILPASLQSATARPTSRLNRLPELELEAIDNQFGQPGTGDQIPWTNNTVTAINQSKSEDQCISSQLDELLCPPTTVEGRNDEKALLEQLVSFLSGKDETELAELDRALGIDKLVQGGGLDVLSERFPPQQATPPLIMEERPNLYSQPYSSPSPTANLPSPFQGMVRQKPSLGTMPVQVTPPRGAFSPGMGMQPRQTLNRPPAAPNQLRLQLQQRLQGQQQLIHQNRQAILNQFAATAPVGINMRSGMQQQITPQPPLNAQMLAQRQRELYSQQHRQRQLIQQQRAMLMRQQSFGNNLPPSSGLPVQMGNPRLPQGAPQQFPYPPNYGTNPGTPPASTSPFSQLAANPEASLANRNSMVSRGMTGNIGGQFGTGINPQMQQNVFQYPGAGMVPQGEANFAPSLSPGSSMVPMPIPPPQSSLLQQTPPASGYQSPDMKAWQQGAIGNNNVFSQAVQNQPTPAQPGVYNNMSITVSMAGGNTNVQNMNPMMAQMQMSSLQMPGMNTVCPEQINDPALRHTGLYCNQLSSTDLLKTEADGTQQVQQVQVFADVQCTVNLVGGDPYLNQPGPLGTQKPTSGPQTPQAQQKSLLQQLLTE
# [5] = inhibitors of intracellular T. cruzi replication, confirmation, NIH3T3 host cells, beta-gal luminescence (AID 2044); format: functional, cell-based;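 further: intracellular parasites grown in NIH/3T3 mouse fibroblasts as host cells; luminescent beta-galactosidase reporter signal from transgenic T. cruzi replicating inside host cells; inhibitors lower the luminescence signal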
# [6] = cytotoxicity toward NIH3T3 fibroblasts, dose response, counter-screen, cell-based, ATP luminescence, mouse fibroblasts (AID 2010); format: functional;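 further: cells exposed to compound for about 90 hours before reading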
# [7] = cytotoxicity in HPDE-C7 cells, cell-based, fluorescence, HTS (AID 430); format: functional; conditions: Homo sapiens
# [8] = cytotoxicity in KRAS-transformed pancreatic duct cells, primary screen, cell-based, fluorescence, HTS (AID 431); format: functional; conditions: Homo sapiens;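 further: cell line used: HPDE-C7K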
# [9] = biological target: T1, Aminopeptidase N (Plasmodium falciparum FcB1/Columbia, UniProt O96935); test: P. falciparum M1AAP inhibitors, biochemical, fluorogenic H-Leu-NHMec substrate, 1536-well (AID 1445); set-up: species or system Plasmodium falciparum 3D7, 3D7
# T1 sequence (O96935 whole entry): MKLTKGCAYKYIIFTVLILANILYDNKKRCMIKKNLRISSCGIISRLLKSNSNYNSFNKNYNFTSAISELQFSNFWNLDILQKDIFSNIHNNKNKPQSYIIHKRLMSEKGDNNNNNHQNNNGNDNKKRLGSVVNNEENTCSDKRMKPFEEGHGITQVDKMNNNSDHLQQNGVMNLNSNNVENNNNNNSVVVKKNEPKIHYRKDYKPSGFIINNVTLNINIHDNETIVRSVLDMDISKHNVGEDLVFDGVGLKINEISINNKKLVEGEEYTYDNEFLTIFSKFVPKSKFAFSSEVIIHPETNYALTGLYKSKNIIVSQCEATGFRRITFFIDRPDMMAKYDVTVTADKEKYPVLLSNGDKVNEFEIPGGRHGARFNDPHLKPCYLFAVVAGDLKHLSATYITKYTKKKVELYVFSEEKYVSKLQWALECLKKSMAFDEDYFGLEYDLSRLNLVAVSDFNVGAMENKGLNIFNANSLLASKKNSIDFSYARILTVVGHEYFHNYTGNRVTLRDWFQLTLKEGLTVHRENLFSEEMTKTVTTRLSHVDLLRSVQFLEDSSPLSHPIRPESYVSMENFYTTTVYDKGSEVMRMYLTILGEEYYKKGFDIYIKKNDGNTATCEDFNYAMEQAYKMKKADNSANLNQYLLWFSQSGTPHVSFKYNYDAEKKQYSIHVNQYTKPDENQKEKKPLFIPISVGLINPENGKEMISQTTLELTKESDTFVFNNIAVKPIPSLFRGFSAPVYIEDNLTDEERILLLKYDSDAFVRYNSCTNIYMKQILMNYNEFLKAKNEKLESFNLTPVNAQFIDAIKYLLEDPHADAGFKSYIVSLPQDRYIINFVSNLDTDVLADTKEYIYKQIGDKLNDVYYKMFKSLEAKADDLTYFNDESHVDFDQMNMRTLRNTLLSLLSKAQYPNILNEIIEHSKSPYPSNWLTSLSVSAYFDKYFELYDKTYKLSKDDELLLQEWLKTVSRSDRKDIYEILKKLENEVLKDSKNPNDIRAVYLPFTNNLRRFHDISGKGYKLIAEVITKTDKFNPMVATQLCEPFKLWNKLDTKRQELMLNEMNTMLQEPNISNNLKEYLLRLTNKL
# [10] = inhibitors of clade B AD8 Env fusion, dose response, cell-based, cherry-pick (AID 652062); format: functional;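 further: luciferase signal from cell-cell fusion driven by HIV-1 clade B AD8 Env; potency is for inhibitors of fusion seen as a drop in luminescence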
# [11] = biological target: T2, DNA repair protein RAD52 homolog (Homo sapiens, UniProt P43351); format: functional, biochemical
# T2 sequence (P43351 whole entry): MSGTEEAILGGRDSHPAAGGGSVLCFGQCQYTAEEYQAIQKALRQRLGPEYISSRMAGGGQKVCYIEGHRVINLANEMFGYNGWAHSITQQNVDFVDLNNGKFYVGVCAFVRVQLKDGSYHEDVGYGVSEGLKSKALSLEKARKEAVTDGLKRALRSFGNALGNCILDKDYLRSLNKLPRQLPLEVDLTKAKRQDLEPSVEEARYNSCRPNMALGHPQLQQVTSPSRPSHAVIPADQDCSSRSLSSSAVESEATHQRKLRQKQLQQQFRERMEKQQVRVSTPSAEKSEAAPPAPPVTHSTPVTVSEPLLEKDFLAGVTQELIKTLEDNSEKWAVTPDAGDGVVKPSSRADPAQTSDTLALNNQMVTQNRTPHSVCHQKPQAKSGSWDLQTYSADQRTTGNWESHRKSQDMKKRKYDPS
# [12] = biological target: T3, Fatty acid synthase (Homo sapiens, UniProt P49327); test: FAS thioesterase domain inhibitors, dose response, biochemical, endpoint fluorescence intensity, uHTS hits (AID 624327); format: functional;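 further: fluorescence from hydrolysis of an O-methyl fluorescein acyl ester substrate by the enzyme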
# [13] = biological target: T3, Fatty acid synthase; test: FAS thioesterase domain inhibitors, dose response, biochemical, kinetic fluorescence intensity (AID 624326); format: functional;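 further: rate of fluorescence rise from hydrolysis of a fluorogenic O-methyl fluorescein ester substrate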
# [14] = Luminescence Cell-Based Dose Retest to Confirm Inhibitors of Cancer Stem Cells. [Related pubchem assays (depositor defined):AID2717, AID2721]; format: functional, Homo sapiens; conditions: Homo sapiens
# [15] = tested on: Streptococcus; test: Group A Streptococcus viability loss, dose response, counter-screen for streptokinase expression inhibitor project, luminescence, BacTiterGlo (AID 1915); format: functional, organism-based;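 further: potency for reduction of bacterial viability or growth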
# [16] = tested on: Streptococcus sp. 'group A'; test: growth inhibition of control SK(-) GAS strain, dose response, counter-screen for streptokinase expression inhibitor project, luminescence, kanamycin, BacTiterGlo, confirmation (AID 1900); format: functional, organism-based
# [17] = biological target: T4, Calpain-2 catalytic subunit (Sus scrofa, UniProt P43367); test: pig calpain II inhibitor potency, dose response, biochemical, fluorogenic peptide substrate (AID 1420); format: functional
# T4 sequence (P43367 whole entry): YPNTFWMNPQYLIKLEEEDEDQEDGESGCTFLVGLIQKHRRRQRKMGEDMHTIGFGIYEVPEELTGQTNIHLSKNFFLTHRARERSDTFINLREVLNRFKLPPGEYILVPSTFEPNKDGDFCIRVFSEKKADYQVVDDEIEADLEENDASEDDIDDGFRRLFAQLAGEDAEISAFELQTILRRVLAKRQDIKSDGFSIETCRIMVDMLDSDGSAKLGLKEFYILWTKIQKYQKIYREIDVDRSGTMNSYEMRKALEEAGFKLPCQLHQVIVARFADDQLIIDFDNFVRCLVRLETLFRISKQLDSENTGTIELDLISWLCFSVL
# [18] = biological target: T5, Streptokinase A (Streptococcus pyogenes serotype M1, UniProt P10520); test: S. pyogenes streptokinase expression inhibitors, potency, dose response, plasminogen activation absorbance, OD405 (AID 1914); format: functional, Streptococcus pyogenes M1 GAS;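 further: secreted streptokinase activity via plasminogen activation per viability signal from cell pellet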
# T5 sequence (P10520 whole entry): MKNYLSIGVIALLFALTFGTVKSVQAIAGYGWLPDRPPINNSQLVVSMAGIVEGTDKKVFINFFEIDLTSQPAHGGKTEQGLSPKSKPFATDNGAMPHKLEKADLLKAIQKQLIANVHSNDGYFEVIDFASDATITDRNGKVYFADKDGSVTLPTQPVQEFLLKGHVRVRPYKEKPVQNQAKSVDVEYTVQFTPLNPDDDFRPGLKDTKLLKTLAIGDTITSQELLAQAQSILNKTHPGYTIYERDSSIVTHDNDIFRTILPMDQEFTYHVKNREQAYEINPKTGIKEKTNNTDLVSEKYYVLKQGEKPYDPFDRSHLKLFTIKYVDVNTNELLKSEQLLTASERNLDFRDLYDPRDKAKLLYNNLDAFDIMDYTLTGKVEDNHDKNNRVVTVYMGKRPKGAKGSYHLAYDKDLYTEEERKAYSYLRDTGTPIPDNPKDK
# [19] = tested on: H9c2; test: cells; format: functional, cell-based; conditions: Rattus norvegicus, H9c2, Myocardium;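 further: confirmatory concentration-response retest of ultra-high-throughput screening hits for modulation of myocardial damage; cell death induced by hydrogen peroxide oxidative stress; compound pretreatment for 60 min then peroxide exposure for 2 h; potency is for protecting the cells against peroxide damage rather than for killing them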
# [20] = biological target: T6, Protein skinhead-1 (Caenorhabditis elegans, UniProt P34707); format: functional
# T6 sequence (P34707 whole entry): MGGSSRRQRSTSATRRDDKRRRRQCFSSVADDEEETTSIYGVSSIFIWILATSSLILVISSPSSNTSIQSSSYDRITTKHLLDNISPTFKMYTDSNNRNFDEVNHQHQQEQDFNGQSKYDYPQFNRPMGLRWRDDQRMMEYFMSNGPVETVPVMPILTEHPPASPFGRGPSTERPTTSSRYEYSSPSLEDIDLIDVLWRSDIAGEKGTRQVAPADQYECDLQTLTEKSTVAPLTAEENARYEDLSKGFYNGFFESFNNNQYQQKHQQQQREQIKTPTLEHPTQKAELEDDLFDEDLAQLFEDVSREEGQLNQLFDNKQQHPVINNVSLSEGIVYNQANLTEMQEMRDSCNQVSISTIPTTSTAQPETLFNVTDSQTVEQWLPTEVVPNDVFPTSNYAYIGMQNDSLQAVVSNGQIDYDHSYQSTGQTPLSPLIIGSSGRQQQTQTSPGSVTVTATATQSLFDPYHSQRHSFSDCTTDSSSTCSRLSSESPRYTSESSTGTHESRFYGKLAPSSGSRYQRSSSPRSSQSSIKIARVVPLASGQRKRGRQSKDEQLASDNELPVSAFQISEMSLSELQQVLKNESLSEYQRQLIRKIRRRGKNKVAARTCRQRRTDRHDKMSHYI
smiles,measurement,setting,value
CC(OC(=O)c1ccc([N+](=O)[O-])o1)C(=O)NC1CCCCC1C (configuration not stated),IC50,[1],> 100 µM (active)
O=C(CCC1CCCN(C(=O)C2=CCCCC2)C1)N1CCN(c2ccccn2)CC1 (configuration not stated),EC50,[2],> 79.4 µM (not active)
same,EC50,[3],> 79.4 µM (not active)
same,EC50,[4],> 79.4 µM (not active)
O=C(Nc1nc(-c2ccc(S(=O)(=O)N3CCCCCC3)cc2)cs1)c1cccs1,EC50,[5],2.33 µM (active)
same,EC50,[2],14.6 µM (not active)
same,EC50,[3],17.4 µM (not active)
same,EC50,[6],6.61 µM (active)
same,EC50,[4],16.5 µM (not active)
COc1cccc(C2=NC(C)(C)NC(c3ccccc3O)C2)c1 (configuration not stated),EC50,[7],11.7 µM (active)
same,EC50,[8],12.5 µM (active)
Nc1c(C(=O)NCCc2ccccc2)c2nc3ccccc3nc2n1CCN1CCOCC1,EC50,[7],9.43 µM (active)
same,EC50,[8],10.4 µM (active)
c1ccc(CN2CCN(c3nc(-c4ccccc4)nc(-n4ccnc4)n3)CC2)cc1,EC50,[5],2.31 µM (active)
same,EC50,[7],9.94 µM (active)
same,EC50,[6],> 60 µM (not active)
same,EC50,[8],11.9 µM (active)
CC1(C)OC2OC(C(=O)N/N=C/c3cc(Br)ccc3O)C3OC(C)(C)OC3C2O1 (configuration not stated),IC50,[9],51.7 µM (active)
O=C(COc1ccc(-n2cnnn2)cc1)Nc1ccc(F)c(F)c1,AC50,[10],1.42 µM (active)
CCN1CCN(Cc2ccc(NC(=O)c3ccc(C)c(NC(=O)c4csc(-c5ccncc5)n4)c3)cc2C(F)(F)F)CC1,AC50,[11],33.6 µM (active)
O=C1Nc2cc(Cl)ccc2C1(N1CCNCC1)C(F)(F)F (configuration not stated),EC50,[7],> 20 µM (not active)
same,EC50,[8],> 20 µM (not active)
Cc1ccc2c(c1)c1nnc(SCC(=O)Nc3cccc(Cl)c3C)nc1n2CC(=O)O,IC50,[9],8.42 µM (active)
CCC1CCC2(CC1)NC(=O)N(CC(=O)Nc1ccc(OC)c(Cl)c1)C2=O (configuration not stated),IC50,[1],> 100 µM (active)
CCOC(=O)c1c(C)[nH]c(C)c1C(=O)COC(=O)c1cccc(S(=O)(=O)NC)c1,IC50,[1],> 100 µM (active)
O=C(CSc1ncnc2c1nnn2-c1ccc(F)cc1)NCc1ccco1,EC50,[2],> 79.4 µM (not active)
same,EC50,[3],> 79.4 µM (not active)
same,EC50,[4],> 79.4 µM (not active)
Cc1ccc(NC(=O)CN(C)C(=S)NC2CC2)cc1,EC50,[2],> 79.4 µM (not active)
same,EC50,[3],> 79.4 µM (not active)
same,EC50,[4],> 79.4 µM (not active)
CN(C)CCCNC(=O)C[C@H]1C[C@H](C(=O)N2CCOCC2)[C@@]2(CCC3CCCC3)c3[nH]c4cc(-c5ccco5)ccc4c3CCN2C1=O,IC50,[12],5.74 µM (active)
same,IC50,[13],5.89 µM (active)
same,AC50,[11],11.2 µM (active)
Clc1ccc(-c2nnnn2-c2ccc(Cl)c(Cl)c2)cc1Cl,AC50,[14],3.97 µM (active)
same,EC50,[15],> 150 µM (not active)
same,EC50,[16],9.57 µM (active)
same,IC50,[17],< 0.4 µM (not active)
same,EC50,[18],8.28 µM (active)
same,IC50,[1],> 100 µM (active)
Cc1ccc2nsnc2c1S(=O)(=O)N(Cc1ccco1)Cc1cc2cccc(C)c2nc1O,IC50,[19],> 79 µM (inactive)
same,IC50,[1],> 100 µM (active)
CCCCCCn1c(N2CCN(c3cccc(Cl)c3)CC2)nc2c1c(=O)[nH]c(=O)n2C,EC50,[7],> 20 µM (not active)
same,EC50,[8],> 20 µM (not active)
same,IC50,[20],> 100 µM (inactive)
Cc1cccc(N2CCN(C(=O)c3cc4n(n3)C(C(F)(F)F)CC(c3ccco3)N4)CC2)c1C (configuration not stated),AC50,[14],1.84 µM (active)
same,EC50,[7],> 20 µM (not active)
same,EC50,[15],29.1 µM (active)
same,EC50,[16],3.02 µM (active)
same,EC50,[18],16.7 µM (active)
same,EC50,[8],> 20 µM (not active)
C=CCN1C(=O)/C(=c2\sc3nc(=O)c(Cc4ccccc4Cl)nn3c2=O)c2ccccc21,IC50,[9],57.4 µM (active)
